Reference: patent US9766227B2, “Screening method for substance having hemocyte maturation acceleration action” (Bloom Technology Co., Ltd., priority 2010, dated 2017)
Like-named read-outs stand apart in the source and are kept apart here.

Columns and labels:
K562 cells [1] = assay: Expression pattern of RGS proteins in hemin-stimulated K562 cell maturation, Western blotting; type: cell-based; settings: 30 μM hemin, days 3, 6, 9 and 12
Protocol: K562 cells (5×10^6 cells/10 mL) were cultured by adding 4.5 g glucose/30 μM hemin to a DMEM solvent, and 2.5 mL of the same solvent was added at 3-day intervals. Cells were collected on days 3, 6, 9, and 12, and were dissolved in 100 μL of SDS Loading Buffer (6 M Urea). 10 μL were run on a 12% SDS-GEL, and after transferring to a blotting membrane, this was reacted with respective antibodies to the R4 RGS family (herein RGS1/RGS3/RGS16/RGS18) and another RGS family (herein, RGS14).

K562 cells [2] = settings: 0.125 mM, with 30 μM hemin
Excerpt: Cells were collected on days 0, 3, 6, 12, and 15, and the ability to assist induction of erythrocyte differentiation was examined using cell surface markers, glycophorin A (CD235a) and transferrin receptor (CD71), as indicators.
CD235(+/−)/CD71(++) represent K562 proerythroblast-like cells, CD235(+)/CD71(++) represent K562 basophilic erythroblast-like cells, CD235(+)/CD71(+) represent K562 polychromatic erythroblast-like cells, and CD235(+)/CD71(+/−) represent K562 orthochromatic erythroblast-like cells or reticulocytes. K562 cells are CD71-non-positive cells positioned upstream of pro-erythroblasts.
(§1) Using the same system that uses K562 cells for evaluating induction of differentiation, CD235/CD71 which are the existing indicators for induction of erythrocyte differentiation, and the new indicators lactoferrin (Lf)/C5a receptor (CD88) were compared and examined. Cells were collected on days 0, 3, 6, 12, and 15, and the ability to induce differentiation into erythrocytes was examined using Lf/CD88 as the indicators.
as §1, with “FAS ligand (CD178)/C5a” for “lactoferrin (Lf)/C5a”, “CD178/CD88” for “Lf/CD88”, “indicator.” for “indicators.”

## hemin
K562 cells [1]
  expression of RGS14: did not change
  expression of the R4 RGS family (RGS1/RGS3/RGS16/RGS18): increased

## manganese chloride
K562 cells [2]; markers CD178/CD88
  induction of differentiation after erythroblast formation: inhibited
  number of days taken for maturation to form erythroblasts: reduced
K562 cells [2]; markers CD235/CD71
  induction of differentiation after erythroblast formation: inhibited
  number of days taken for maturation until erythroblast formation: reduced
K562 cells [2]; markers Lf/CD88
  induction of differentiation after erythroblast formation: inhibited
  number of days taken for maturation until erythroblast formation: reduced
